From patent US20240199571A1, “THIOPHENE COMPOUND AND APPLICATION THEREOF” (MEDSHINE DISCOVERY INC., priority 2021, published 2024) come the findings set out here.

For one assay, the system named is NCI-H1417 cells. The assay is described as follows: Experiment 2: inhibition of NCI-H1417 cell proliferation (CellTiter-Glo, 10 days). Format: cell-based. The conditions noted are these: Homo sapiens, 240 h, 10 days incubation. The gist of the method: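 Cells at 1000 per well exposed to 10-point 3-fold dilutions from 10 μM top concentration for 10 days. Viability by CellTiter-Glo luminescence; inhibition normalized to max/min controls, IC50 from four-parameter fit.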
For orientation: ATP-based viability assays read luminescence as a measure of living cells.

The test system of assay [1] is human small cell lung cancer NCI-H1417 cell subcutaneous xenograft tumor. Kind of assay: Experiment 5: in vivo pharmacodynamic study, NCI-H1417 subcutaneous xenograft tumor in CB17-SCID mice. The note with it: p.o.; for Mean tumor volume ± SEM (mm^3) (Day 28): day 28 after administration; for TGI (%): tumor volume at day 28. An excerpt: Experiment 5: In Vivo Pharmacodynamic Study of Compounds on CB17-SCID Mouse Model of Human Small Cell Lung Cancer NCI-H1417 Cell Subcutaneous Xenograft Tumor
The purpose of this experiment was to evaluate the in vivo efficacy of the compounds of the present disclosure on CB17-SCID mouse model of human small cell lung cancer NCI-H1417 cell subcutaneous xenograft tumor.
5.2 Experimental Animals: • Species: mice • Strain: CB17-SCID mice • Week age and weight: 6-8 weeks old, 18 to 22 grams • Gender: Female • Supplier: Beijing Vital River Laboratory Animal Technology Co., Ltd.
Human lung cancer cells NCI-H1417 were cultured in vitro in suspension in RPMI 1640 medium with 10% fetal bovine serum, 100 U/mL penicillin, and 100 μg/mL streptomycin at 37° C. in a 5% CO2 cell culture incubator. Routine digestion and passage treatment were performed twice a week. When the number of cells reached the required number, the cells were counted and resuspended in PBS at a density of 10×10^6 cells/200 μL.
0.2 mL of NCI-H1417 tumor cells (containing 10×10^6 cells) suspension (PBS: matrix gel=1:1) was subcutaneously inoculated on the right back of mice, and in pharmacodynamic experiments, on the 16th day after cell inoculation, when the average tumor volume reached 86 mm^3, the subjects were randomly grouped and the administration started.
The experimental vehicle was 5% dimethyl sulfoxide/95% (10% Solutol) solution. Preparation method: 3.8 mL of […] was taken and added to 34.2 mL of double-distilled water, 2 mL of dimethyl sulfoxide was added thereto, and the mixture was mixed well. The test substance was dissolved with the vehicle, prepared as a homogeneous solution of a certain concentration, and stored at 4° C.
The experimental indicator was to examine whether tumor growth was inhibited, delayed, or cured. The tumor diameter was measured twice a week using vernier calipers. The calculation formula of tumor volume is V=0.5a×b^2, wherein a and b represent the long and short diameters of the tumor respectively.
The tumor inhibitory efficacy of compounds was evaluated by TGI (%). TGI (%) reflects the tumor growth inhibition rate. Calculation of TGI (%): TGI (%)=[1−(Average tumor volume at the end of administration in a certain treatment group−Average tumor volume at the beginning of administration in this treatment group)/(Average tumor volume at the end of treatment in the vehicle control group−Average tumor volume at the beginning of treatment in the vehicle control group)]×100%.

Structures can show the parent of a compound that is named as a salt.

`CC(C)(CO)n1cc2cc(-c3sc(C(=O)N4CCC[C@@H](N)C4)cc3-c3ccc(C#N)c(F)c3)ccc2n1` [Hydrochloride of compound 87] registered a 50% inhibitory concentration (IC50) in the assay on NCI-H1417 cells of 5.11 nM. In assay [1] (30 mg/kg, BID), the “Mean tumor volume ± SEM (mm^3) (Day 28)” value is recorded as 67 ± 5 mm^3 and the “TGI (%)” value was 105.17%.
In turn, `CN[C@@H]1CCCN(C(=O)c2cc(-c3ccc(C#N)c(F)c3)c(-c3cc4nnn(CC(C)(C)O)c4c(F)c3F)s2)C1` [Hydrochloride of compound 98] had a 50% inhibitory concentration (IC50) with NCI-H1417 cells of 0.07 nM. Moreover, the “Mean tumor volume ± SEM (mm^3) (Day 28)” value amounted to 34 ± 1 mm^3 in assay [1] (5 mg/kg, BID); 44 ± 2 mm^3 in assay [1] (5 mg/kg, QD); 38 ± 3 mm^3 in assay [1] (10 mg/kg, QD). Besides, the “TGI (%)” value is reported as 114.20% in assay [1] (5 mg/kg, BID); 111.58% in assay [1] (5 mg/kg, QD); 113.35% in assay [1] (10 mg/kg, QD).

The IC50 is the midpoint of a concentration-inhibition curve. High values mean a need for much substance, low ones inhibition by little substance.
